# According to patent US20130274174A1, “THERAPEUTIC COMBINATION OF DAPTOMYCIN AND PROTEIN SYNTHESIS INHIBITOR ANTIBIOTIC, AND METHODS OF USE” (priority 2011, published 2013):
# Like-named read-outs stand apart in the source and are kept apart here.
# How the values were obtained:
# S. aureus MW2 (NRS123) = assay: microbe, parasite or virus in culture; type: cell-based, Staphylococcus aureus; conditions: for MIC: Staphylococcus aureus
# Experimental: (§1) S. aureus strains MW2 (NARSA collection clinical MRSA isolate, NRS123) and ATCC 33591 (MRSA strain from the American Type Culture Collection) were cultured on Mueller-Hinton II cation adjusted (MHA) medium in 90×90 mm square petri dishes. MHA containing ¼ of the MIC value of TR-700, TR-705, LZD, TIA, CLI, TET, or VAN, TMP/SMX throughout the plate and a continuous linear gradient of DAP across the plate was used to passage MW2. ATCC 33591 was passaged with ¼ of the MIC of a subset of these drugs (TR-700, TMP/SMX, and VAN). A DAP-only control passage group was included for both strains. DAP gradients were created by pouring two layers of media as previously described (Bryson, V., et al. 1952. Microbial selection. Science 116:45-51; Locke, J. B., et al., 2009. Antimicrob. Agents Chemother. 53:5265-5274). Following each passage the leading edge of growth (i.e., most resistant cells) was resuspended in phosphate buffered saline (PBS) to an absorbance of 0.30 OD600 and a 100 μl aliquot containing ˜3.0×10^7 CFU (colony-forming units) was spread on to the proceeding passage plate. The starting maximal DAP concentration was 2 μg/ml and was increased in two-fold increments when the leading edge of growth surpassed the half way point on the plate. A glycerol stock was made from the total cell population for each culture condition for each passage. Thirty serial passages were completed for each treatment group.
# S. aureus ATCC 33591 = assay: microbe, parasite or virus in culture; type: cell-based, Staphylococcus aureus; conditions: Staphylococcus aureus
# Experimental: as §1
structure (smiles),measurement,setting,value
"CN[C@H](CC(C)C)C(=O)N[C@H]1C(=O)N[C@@H](CC(N)=O)C(=O)N[C@H]2C(=O)N[C@H]3C(=O)N[C@H](C(=O)N[C@H](C(=O)O)c4cc(O)cc(O)c4-c4cc3ccc4O)[C@H](O)c3ccc(c(Cl)c3)Oc3cc2cc(c3O[C@@H]2O[C@H](CO)[C@@H](O)[C@H](O)[C@H]2O[C@H]2C[C@](C)(N)[C@H](O)[C@H](C)O2)Oc2ccc(cc2Cl)[C@H]1O [VAN, vancomycin]",MIC,"S. aureus MW2 (NRS123); NRS123, passage 0, NRS123 WT",1 µg/mL
same,MIC,"S. aureus MW2 (NRS123); NRS123, passage 5, selection group DAP",2 µg/mL
same,MIC,"S. aureus MW2 (NRS123); NRS123, passage 5, selection group DAP + CLI",4 µg/mL
same,MIC,"S. aureus MW2 (NRS123); NRS123, passage 5, selection group DAP + LZD",4 µg/mL
same,MIC,"S. aureus MW2 (NRS123); NRS123, passage 5, selection group DAP + TET",2 µg/mL
same,MIC,"S. aureus MW2 (NRS123); NRS123, passage 5, selection group DAP + TIA",2 µg/mL
same,MIC,"S. aureus MW2 (NRS123); NRS123, passage 5, selection group DAP + TMP/SMX",8 µg/mL
same,MIC,"S. aureus MW2 (NRS123); NRS123, passage 5, selection group DAP + TR-700",2 µg/mL
same,MIC,"S. aureus MW2 (NRS123); NRS123, passage 5, selection group DAP + TR-705",4 µg/mL
same,MIC,"S. aureus MW2 (NRS123); NRS123, passage 5, selection group DAP + VAN",4 µg/mL
same,MIC,"S. aureus MW2 (NRS123); NRS123, passage 10, selection group DAP",4 µg/mL
same,MIC,"S. aureus MW2 (NRS123); NRS123, passage 10, selection group DAP + CLI",4 µg/mL
same,MIC,"S. aureus MW2 (NRS123); NRS123, passage 10, selection group DAP + LZD",8 µg/mL
same,MIC,"S. aureus MW2 (NRS123); NRS123, passage 10, selection group DAP + TET",2 µg/mL
same,MIC,"S. aureus MW2 (NRS123); NRS123, passage 10, selection group DAP + TIA",4 µg/mL
same,MIC,"S. aureus MW2 (NRS123); NRS123, passage 10, selection group DAP + TMP/SMX",8 µg/mL
same,MIC,"S. aureus MW2 (NRS123); NRS123, passage 10, selection group DAP + TR-700",2 µg/mL
same,MIC,"S. aureus MW2 (NRS123); NRS123, passage 10, selection group DAP + TR-705",2 µg/mL
same,MIC,"S. aureus MW2 (NRS123); NRS123, passage 10, selection group DAP + VAN",4 µg/mL
same,MIC,"S. aureus MW2 (NRS123); NRS123, passage 15, selection group DAP",8 µg/mL
same,MIC,"S. aureus MW2 (NRS123); NRS123, passage 15, selection group DAP + CLI",8 µg/mL
same,MIC,"S. aureus MW2 (NRS123); NRS123, passage 15, selection group DAP + LZD",8 µg/mL
same,MIC,"S. aureus MW2 (NRS123); NRS123, passage 15, selection group DAP + TET",0.5 µg/mL
same,MIC,"S. aureus MW2 (NRS123); NRS123, passage 15, selection group DAP + TIA",4 µg/mL
same,MIC,"S. aureus MW2 (NRS123); NRS123, passage 15, selection group DAP + TMP/SMX",8 µg/mL
same,MIC,"S. aureus MW2 (NRS123); NRS123, passage 15, selection group DAP + TR-700",2 µg/mL
same,MIC,"S. aureus MW2 (NRS123); NRS123, passage 15, selection group DAP + TR-705",2 µg/mL
same,MIC,"S. aureus MW2 (NRS123); NRS123, passage 15, selection group DAP + VAN",8 µg/mL
same,MIC,"S. aureus MW2 (NRS123); NRS123, passage 20, selection group DAP",8 µg/mL
same,MIC,"S. aureus MW2 (NRS123); NRS123, passage 20, selection group DAP + CLI",8 µg/mL
same,MIC,"S. aureus MW2 (NRS123); NRS123, passage 20, selection group DAP + LZD",8 µg/mL
same,MIC,"S. aureus MW2 (NRS123); NRS123, passage 20, selection group DAP + TET",1 µg/mL
same,MIC,"S. aureus MW2 (NRS123); NRS123, passage 20, selection group DAP + TIA",4 µg/mL
same,MIC,"S. aureus MW2 (NRS123); NRS123, passage 20, selection group DAP + TMP/SMX",8 µg/mL
same,MIC,"S. aureus MW2 (NRS123); NRS123, passage 20, selection group DAP + TR-700",2 µg/mL
same,MIC,"S. aureus MW2 (NRS123); NRS123, passage 20, selection group DAP + TR-705",2 µg/mL
same,MIC,"S. aureus MW2 (NRS123); NRS123, passage 20, selection group DAP + VAN",8 µg/mL
same,MIC,"S. aureus MW2 (NRS123); NRS123, passage 25, selection group DAP",4 µg/mL
same,MIC,"S. aureus MW2 (NRS123); NRS123, passage 25, selection group DAP + CLI",8 µg/mL
same,MIC,"S. aureus MW2 (NRS123); NRS123, passage 25, selection group DAP + LZD",8 µg/mL
same,MIC,"S. aureus MW2 (NRS123); NRS123, passage 25, selection group DAP + TET",1 µg/mL
same,MIC,"S. aureus MW2 (NRS123); NRS123, passage 25, selection group DAP + TIA",2 µg/mL
same,MIC,"S. aureus MW2 (NRS123); NRS123, passage 25, selection group DAP + TMP/SMX",8 µg/mL
same,MIC,"S. aureus MW2 (NRS123); NRS123, passage 25, selection group DAP + TR-700",2 µg/mL
same,MIC,"S. aureus MW2 (NRS123); NRS123, passage 25, selection group DAP + TR-705",2 µg/mL
same,MIC,"S. aureus MW2 (NRS123); NRS123, passage 25, selection group DAP + VAN",8 µg/mL
same,MIC,"S. aureus MW2 (NRS123); NRS123, passage 30, selection group DAP",2 µg/mL
same,MIC,"S. aureus MW2 (NRS123); NRS123, passage 30, selection group DAP + CLI",8 µg/mL
same,MIC,"S. aureus MW2 (NRS123); NRS123, passage 30, selection group DAP + LZD",2 µg/mL
same,MIC,"S. aureus MW2 (NRS123); NRS123, passage 30, selection group DAP + TET",1 µg/mL
same,MIC,"S. aureus MW2 (NRS123); NRS123, passage 30, selection group DAP + TIA",4 µg/mL
same,MIC,"S. aureus MW2 (NRS123); NRS123, passage 30, selection group DAP + TMP/SMX",8 µg/mL
same,MIC,"S. aureus MW2 (NRS123); NRS123, passage 30, selection group DAP + TR-700",2 µg/mL
same,MIC,"S. aureus MW2 (NRS123); NRS123, passage 30, selection group DAP + TR-705",2 µg/mL
same,MIC,"S. aureus MW2 (NRS123); NRS123, passage 30, selection group DAP + VAN",4 µg/mL
same,MIC,"S. aureus MW2 (NRS123); NRS123, read-out: DAP MIC by the end of the experiment (selection of DAP^ns strains), MW2, passaged with DAP alone or with co-selecting agent at ¼ MIC, CLSI breakpoint",> 1 µg/mL
same,effect on preventing the emergence of DAP^ns,"S. aureus MW2 (NRS123); co-selection at ¼ MIC, VAN: both backgrounds",had an effect on preventing the emergence of DAP^ns strains
same,DAP/VAN cross-resistance,"S. aureus MW2 (NRS123); co-selection with VAN, both backgrounds",cross-resistance was observed
same,MIC,"S. aureus ATCC 33591; ATCC33591, passage 0, ATCC 33591 WT",2 µg/mL
same,MIC,"S. aureus ATCC 33591; ATCC33591, passage 5, selection group DAP",4 µg/mL
same,MIC,"S. aureus ATCC 33591; ATCC33591, passage 5, selection group DAP + TMP/SMX",4 µg/mL
same,MIC,"S. aureus ATCC 33591; ATCC33591, passage 5, selection group DAP + TR-700",2 µg/mL
same,MIC,"S. aureus ATCC 33591; ATCC33591, passage 5, selection group DAP + VAN",4 µg/mL
same,MIC,"S. aureus ATCC 33591; ATCC33591, passage 10, selection group DAP",4 µg/mL
same,MIC,"S. aureus ATCC 33591; ATCC33591, passage 10, selection group DAP + TMP/SMX",8 µg/mL
same,MIC,"S. aureus ATCC 33591; ATCC33591, passage 10, selection group DAP + TR-700",4 µg/mL
same,MIC,"S. aureus ATCC 33591; ATCC33591, passage 10, selection group DAP + VAN",4 µg/mL
same,MIC,"S. aureus ATCC 33591; ATCC33591, passage 15, selection group DAP",4 µg/mL
same,MIC,"S. aureus ATCC 33591; ATCC33591, passage 15, selection group DAP + TMP/SMX",4 µg/mL
same,MIC,"S. aureus ATCC 33591; ATCC33591, passage 15, selection group DAP + TR-700",4 µg/mL
same,MIC,"S. aureus ATCC 33591; ATCC33591, passage 15, selection group DAP + VAN",4 µg/mL
same,MIC,"S. aureus ATCC 33591; ATCC33591, passage 20, selection group DAP",4 µg/mL
same,MIC,"S. aureus ATCC 33591; ATCC33591, passage 20, selection group DAP + TMP/SMX",4 µg/mL
same,MIC,"S. aureus ATCC 33591; ATCC33591, passage 20, selection group DAP + TR-700",4 µg/mL
same,MIC,"S. aureus ATCC 33591; ATCC33591, passage 20, selection group DAP + VAN",8 µg/mL
same,MIC,"S. aureus ATCC 33591; ATCC33591, passage 25, selection group DAP",4 µg/mL
same,MIC,"S. aureus ATCC 33591; ATCC33591, passage 25, selection group DAP + TMP/SMX",4 µg/mL
same,MIC,"S. aureus ATCC 33591; ATCC33591, passage 25, selection group DAP + TR-700",4 µg/mL
same,MIC,"S. aureus ATCC 33591; ATCC33591, passage 25, selection group DAP + VAN",8 µg/mL
same,MIC,"S. aureus ATCC 33591; ATCC33591, passage 30, selection group DAP",4 µg/mL
same,MIC,"S. aureus ATCC 33591; ATCC33591, passage 30, selection group DAP + TMP/SMX",4 µg/mL
same,MIC,"S. aureus ATCC 33591; ATCC33591, passage 30, selection group DAP + TR-700",2 µg/mL
same,MIC,"S. aureus ATCC 33591; ATCC33591, passage 30, selection group DAP + VAN",4 µg/mL
